In patent US20230085307A1, “PYRIDAZINONE COMPOUND AND HERBICIDE” (NISSAN CHEMICAL CORPORATION, priority 2019, published 2023):

Key:
rice flat sedge = assay: Test Example 3: herbicidal effect by foliage application, Wagner pot (Table 18, symbol E); assay type: in vivo, rice flat sedge (Cyperus iria); conditions: 320 g/ha
Outline: (§1)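 Plants were sown in alluvial soil held under 0.1–0.5 cm standing water and grown 14 days in a greenhouse at 25–30 °C. An emulsifiable formulation, water-diluted to the set dose, was then sprayed onto the foliage, and effects were scored three weeks later using previously defined criteria.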

oval-leafed pondweed = assay: Test Example 2: herbicidal activity, application during weed generation under submerged conditions (Table 17, symbol C); assay type: in vivo, oval-leafed pondweed (Monochoria vaginalis); conditions: AAH 320 g/ha; application during weed generation, submerged conditions
Outline: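 Alluvial soil in Wagner pots was flooded to 4 cm depth and sown with the three weeds together; pots were kept in a greenhouse at 25° C. to 30° C. At the one to two leaf stage, an emulsion formulation diluted in water to a set rate went onto the water surface; scored three weeks later.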

windgrass [1] = assay: Test Example 4: herbicidal effect by soil treatment (Table 19, symbol L); assay type: in vivo, windgrass (Apera spica-venti); conditions: amount of applied herbicide 320 g/ha
Outline: (§2)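 Soil-surface application: an emulsion agent diluted with water to the predetermined dose is sprayed uniformly over seeds lying under roughly 1.5 cm of sterilized diluvial soil. Boxes stay in a greenhouse at 25° C. to 30° C. Three weeks later, each species is graded on previously defined criteria.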

late watergrass = assay: Test Example 1: herbicidal activity, application before weed generation under submerged conditions (Table 16, symbol A); assay type: in vivo, late watergrass (Echinochloa oryzicola); conditions: amount of applied herbicide 320 g/ha
Outline: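 Submerged Wagner pots (alluvial soil, 4 cm water) sown with weed seeds and planted with 2.5-leaf rice seedlings; emulsifiable concentrate diluted in water applied to water surface on sowing day. Held in greenhouse at 25-30 °C; injury scored 0-5 by herbicidal rate after three weeks.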

chickweed = assay: Test Example 5: herbicidal effect by foliage application, plastic box (Table 20, symbol P); assay type: in vivo, common chickweed (Stellaria media); conditions: foliage application, 320 g/ha, three weeks after application
Outline: (§3)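 Sow seeds spot-wise in sterilized diluvial soil; cover with ~1.5 cm soil. Grow 14 days in greenhouse, 25° C. to 30° C. Spray foliage with emulsion diluted to predetermined amount. Rate effect after 3 weeks.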

velvetleaf [2] = assay: Test Example 4: herbicidal effect by soil treatment (Table 19, symbol M); assay type: in vivo, velvetleaf (Abutilon theophrasti); conditions: amount of applied herbicide 320 g/ha
Outline: as §2

Italian ryegrass [3] = assay: Test Example 4: herbicidal effect by soil treatment (Table 19, symbol K); assay type: in vivo, Italian ryegrass (Lolium multiflorum); conditions: amount of applied herbicide 320 g/ha
Outline: as §2

green foxtail = assay: Test Example 4: herbicidal effect by soil treatment (Table 19, symbol G); assay type: in vivo, green foxtail (Setaria viridis); conditions: amount of applied herbicide 320 g/ha
Outline: as §2

windgrass [4] = assay: Test Example 5: herbicidal effect by foliage application, plastic box (Table 20, symbol L); assay type: in vivo, windgrass (Apera spica-venti); conditions: foliage application, 320 g/ha, three weeks after application
Outline: as §3

wild oat = assay: Test Example 4: herbicidal effect by soil treatment (Table 19, symbol I); assay type: in vivo, wild oat (Avena fatua); conditions: amount of applied herbicide 320 g/ha
Outline: as §2

barnyard grass = assay: Test Example 5: herbicidal effect by foliage application, plastic box (Table 20, symbol H); assay type: in vivo, barnyard grass (Echinochloa crus-galli); conditions: foliage application, 320 g/ha, three weeks after application
Outline: as §3

Chinese sprangletop = assay: Test Example 3: herbicidal effect by foliage application, Wagner pot (Table 18, symbol D); assay type: in vivo, chinese sprangletop (Leptochloa chinensis); conditions: 320 g/ha
Outline: as §1

false cleavers = assay: Test Example 4: herbicidal effect by soil treatment (Table 19, symbol Q); assay type: in vivo, false cleavers (Galium spurium); conditions: amount of applied herbicide 320 g/ha
Outline: as §2

Italian ryegrass [5] = assay: Test Example 5: herbicidal effect by foliage application, plastic box (Table 20, symbol K); assay type: in vivo, Italian ryegrass (Lolium multiflorum); conditions: foliage application, 320 g/ha, three weeks after application
Outline: as §3

persian speedwell = assay: Test Example 4: herbicidal effect by soil treatment (Table 19, symbol R); assay type: in vivo, Persian speedwell (Veronica persica); conditions: amount of applied herbicide 320 g/ha
Outline: as §2

lambsquarters = assay: Test Example 4: herbicidal effect by soil treatment (Table 19, symbol O); assay type: in vivo, lambsquarters (Chenopodium album); conditions: amount of applied herbicide 320 g/ha
Outline: as §2

velvetleaf [6] = assay: Test Example 5: herbicidal effect by foliage application, plastic box (Table 20, symbol M); assay type: in vivo, velvetleaf (Abutilon theophrasti); conditions: foliage application, 320 g/ha, three weeks after application
Outline: as §3

SMILES: COc1ccc2c(-c3c(O)c(C)nn(C)c3=O)c(-c3ccc(F)cc3OC)sc2c1 [3-076]
- herbicidal effect on rice flat sedge (E) (rice flat sedge): 5 (Herbicidal rate of 90% or more (almost completely withered))
- herbicidal effect rating, C: oval-leafed pondweed (oval-leafed pondweed): 4 (Herbicidal rate of 70% or more and less than 90%)
- L: windgrass, herbicidal effect grade (windgrass [1]): 5 (Herbicidal rate of 90% or more (almost completely withered))
- Herbicidal effect, A: late watergrass (late watergrass): 4 (Herbicidal rate of 70% or more and less than 90%)
- P: chickweed, herbicidal effect grade (chickweed): 5 (Herbicidal rate of 90% or more (almost completely withered))
- M: velvetleaf, herbicidal effect grade (velvetleaf [2]): 0 (Herbicidal rate of 5% or less (almost no effect))
- K: Italian ryegrass, herbicidal effect grade (Italian ryegrass [3]): 4 (Herbicidal rate of 70% or more and less than 90%)
- G: green foxtail, herbicidal effect grade (green foxtail): 5 (Herbicidal rate of 90% or more (almost completely withered))
- L: windgrass, herbicidal effect grade (windgrass [4]): 5 (Herbicidal rate of 90% or more (almost completely withered))
- I: wild oat, herbicidal effect grade (wild oat): 3 (Herbicidal rate of 40% or more and less than 70%)
- H: barnyard grass, herbicidal effect grade (barnyard grass): 3 (Herbicidal rate of 40% or more and less than 70%)
- herbicidal effect on Chinese sprangletop (D) (Chinese sprangletop): 3 (Herbicidal rate of 40% or more and less than 70%)
- Q: false cleavers, herbicidal effect grade (false cleavers): 4 (Herbicidal rate of 70% or more and less than 90%)
- K: Italian ryegrass, herbicidal effect grade (Italian ryegrass [5]): 4 (Herbicidal rate of 70% or more and less than 90%)
- R: persian speedwell, herbicidal effect grade (persian speedwell): 5 (Herbicidal rate of 90% or more (almost completely withered))
- O: lambsquarters, herbicidal effect grade (lambsquarters): 4 (Herbicidal rate of 70% or more and less than 90%)
- M: velvetleaf, herbicidal effect grade (velvetleaf [6]): 3 (Herbicidal rate of 40% or more and less than 70%)
